Laboratory results from patent publication US20260335453A1, “ISOINDOLINONE-GLUTARIMIDE ANTIBODY CONJUGATES, AND USES THEREOF” (FIREFLY BIO, INC., priority 2023, published 2026).

How the values were obtained:
CAL51 cells [1] = experiment: Cell proliferation (Cell Titer Glow), CAL51; type: cell-based; conditions: Homo sapiens, CAL-51; IG compounds, cell killing, 72 h
Method: Exemplary isoindolinone-glutarimide (IG) compounds of Table 1a, 1b and 1c were prepared and characterized according to the Examples herein. Certain exemplary IG compounds of(Table 1a were tested for their effects in inhibiting cellular proliferation, including CAL1 WSU-DLCL2, NCI-N87 and SKBR3. CAL51 is a human breast adenocarcinoma cell line with triple-negative status for expression of estrogen, progesterone and HER2 receptors. WSU-DLCL2 is a human B-Cell non-Hodgkin lymphoma cell line that expresses high levels of CD22. NCI-N87 is a human epithelial cell line established from a gastric carcinoma; SKBR3 is a human epithelial cell line established from a breast adenocarcinoma; both NCI-N87 and SKBR3 cell lines express high levels of HER2 receptor. […]
One day prior to treatment with compounds or IGAC, cells were plated in white 96-well plates (SKBR: 3000 cells/well; CAL-51: 4000 cells/well). Compounds or ADCs were added in a serial-dilution manner reaching the indicated concentrations. Plates were incubated at 37 degrees for 96h (ADCs) or 72h (compounds) whereafter a 1:10 dilution of Cell Titer Glow was used to measure relative cell numbers after 10 min of incubation at room temperature.

CAL51 cells [2] = experiment: Degradation assay evaluated by immunofluorescence staining, CAL51; type: cell-based, human; conditions: for DC50 / Dmax: Homo sapiens, CAL-51, CAL51, 6 h; for Dmax (%) CAL51: CAL51, 6 h
Method: One day prior to treatment with compounds, black 96 well plates were coated with fibronectin (0.2 μg/ml in PBS) for 45 min at room temperature and subsequently washed with PBS. CAL-51 or SKBR3 cells were seeded at 30K cells/well (1001) and incubated overnight at 37° C. whereafter compounds were added reaching indicated concentrations. 6 h after treatment the medium was removed, cells were washed with PBS and fixed with 10% formalin for 20 mins at room temperature. Following two PBS washes (150 μl), cells were permeabilized in 0.1% Triton X-100 in PBS for 8 mins at room temperature and subsequently washed again twice with PBS. Cells were blocked thereafter with 1% BSA in PBS for 45 mins. Primary antibody was diluted in blocking buffer and incubated with the cells overnight at 4° C. After three washes with PBS, cells were incubated with secondary antibody for 1 h at RT, washed and subsequently images were taken on an Operetta High-Content Imager.
For the determination of the DC50, a custom algorithm implemented in the PerkinElmer image analysis software Harmony-Acapella® was used.

Row | Compound | IC50 (CAL51 cells [1]) | DC50 (CAL51 cells [2]) | Dmax (CAL51 cells [2]) | Dmax (%) CAL51 (CAL51 cells [2])
1 | Cc1ccc(NC(=O)NCc2ccc3c(c2)C(=O)N(C2CCC(=O)NC2=O)C3)cc1Cl (stereo not drawn) [IG-16, 1-(3-chloro-4-methylphenyl)-3-((2-(2,6-dioxopiperidin-3-yl)-3-oxoisoindolin-5-yl)methyl)urea] | 0.444 µM | 174 ± 106 nM | 91.7 ± 5.22% | –
2 | CC(C)(C)c1ccc(NC(=O)NCc2ccc3c(c2O)CN(C2CCC(=O)NC2=O)C3=O)cc1Cl (stereo not drawn) [IG-48, 1-(4-(tert-butyl)-3-chlorophenyl)-3-((2-(2,6-dioxopiperidin-3-yl)-4-hydroxy-1-oxoisoindolin-5-yl)methyl)urea] | 0.05 µM | – | – | –
3 | CNc1c(CNC(=O)Nc2ccc(C)c(Cl)c2)ccc2c1CN(C1CCC(=O)NC1=O)C2=O (stereo not drawn) [IG-31, 1-(3-chloro-4-methylphenyl)-3-((2-(2,6-dioxopiperidin-3-yl)-4-(methylamino)-1-oxoisoindolin-5-yl)methyl)urea] | > 10 µM | – | 18.6% | –
4 | Cc1ccc(NC(=O)NCc2ccc3c(c2O)CN(C2CCC(=O)NC2=O)C3=O)cc1O (stereo not drawn) [IG-27, 1-((2-(2,6-dioxopiperidin-3-yl)-4-hydroxy-1-oxoisoindolin-5-yl)methyl)-3-(3-hydroxy-4-methylphenyl)urea] | > 10 µM | – | – | –
5 | O=C1CCC(N2Cc3c(Nc4ccnc(Cc5ccc6c(c5)CCC6)n4)cccc3C2=O)C(=O)N1 (stereo not drawn) [IG-19, 3-(4-((2-((2,3-dihydro-1H-inden-5-yl)methyl)pyrimidin-4-yl)amino)-1-oxoisoindolin-2-yl)piperidine-2,6-dione] | > 10 µM | – | – | Not active
6 | CNCCOCCc1ccc(NC(=O)OCc2ccc3c(c2)CN(C2CCC(=O)NC2=O)C3=O)cc1Cl (stereo not drawn) [IG-4] | > 10 µM | – | 17.3 ± 0.107% | –
7 | CNCCOCCc1ccc(NC(=O)NCc2ccc3c(c2)C(=O)N(C2CCC(=O)NC2=O)C3)cc1Cl (stereo not drawn) [IG-20, 1-(3-chloro-4-(2-(2-(methylamino)ethoxy)ethyl)phenyl)-3-((2-(2,6-dioxopiperidin-3-yl)-3-oxoisoindolin-5-yl)methyl)urea] | > 10 µM | – | – | Not active
8 | O=C1CCC(N2Cc3cc(NS(=O)(=O)c4ccccc4OC(F)(F)F)ccc3C2=O)C(=O)N1 (stereo not drawn) [IG-11, N-(2-(2,6-dioxopiperidin-3-yl)-1-oxoisoindolin-5-yl)-2-(trifluoromethoxy) benzenesulfonamide] | > 10 µM | – | 42 ± 9.54% | –
9 | O=C1CCC(N2C(=O)c3cc(NS(=O)(=O)c4ccccc4OC(F)(F)F)cc(O)c3C2=O)C(=O)N1 (stereo not drawn) [IG-34, N-(2-(2,6-dioxopiperidin-3-yl)-7-hydroxy-1,3-dioxoisoindolin-5-yl)-2-(trifluoromethoxy)benzenesulfonamide] | > 10 µM | – | – | –
10 | O=C1CCC(N2Cc3c(ccc(CNC(=O)Nc4ccc(Br)c(Br)c4)c3O)C2=O)C(=O)N1 (stereo not drawn) [IG-47, 1-(3,4-dibromophenyl)-3-((2-(2,6-dioxopiperidin-3-yl)-4-hydroxy-1-oxoisoindolin-5-yl)methyl)urea] | 1.08 µM | – | – | –
11 | Cc1ccc(NC(=O)CCc2ccc3c(c2)CN(C2CCC(=O)NC2=O)C3=O)cc1O (stereo not drawn) [IG-10, 3-(2-(2,6-dioxopiperidin-3-yl)-1-oxoisoindolin-5-yl)-N-(3-hydroxy-4-methylphenyl)propanamide] | > 10 µM | – | 25.1 ± 3.27% | –
12 | Nc1ccc(OS(=O)(=O)c2ccccc2OC(F)(F)F)c2c1C(=O)N(C1CCC(=O)NC1=O)C2=O (stereo not drawn) [IG-30, 7-amino-2-(2,6-dioxopiperidin-3-yl)-1,3-dioxoisoindolin-4-yl 2-(trifluoromethoxy)benzenesulfonate] | > 10 µM | – | – | –
13 | O=C1CCC(N2C(=O)c3cc(O)c(NS(=O)(=O)c4ccccc4OC(F)(F)F)cc3C2=O)C(=O)N1 (stereo not drawn) [IG-46, N-(2-(2,6-dioxopiperidin-3-yl)-6-hydroxy-1,3-dioxoisoindolin-5-yl)-2-(trifluoromethoxy)benzenesulfonamide] | > 10 µM | – | – | –
14 | CNc1cc2c(cc1CNC(=O)Nc1ccc(C)c(Cl)c1)CN(C1CCC(=O)NC1=O)C2=O (stereo not drawn) [IG-45, 1-(3-chloro-4-methylphenyl)-3-((2-(2,6-dioxopiperidin-3-yl)-6-(methylamino)-1-oxoisoindolin-5-yl)methyl)urea] | > 10 µM | – | – | –
15 | O=C1CCC(N2Cc3c(ccc(CNC(=O)Nc4cccc(S(F)(F)(F)(F)F)c4)c3O)C2=O)C(=O)N1 (stereo not drawn) [IG-43, 1-((2-(2,6-dioxopiperidin-3-yl)-4-hydroxy-1-oxoisoindolin-5-yl)methyl)-3-(3-(pentafluoro-l6-sulfaneyl)phenyl)urea] | 0.472 µM | – | – | –
16 | CC(C)(C)c1cccc(NC(=O)NCc2ccc3c(c2O)CN(C2CCC(=O)NC2=O)C3=O)c1 (stereo not drawn) [IG-25, 1-(3-(tert-butyl)phenyl)-3-((2-(2,6-dioxopiperidin-3-yl)-4-hydroxy-1-oxoisoindolin-5-y1)methyl)urea] | 0.0432 µM | 28.9 nM | 89.6% | –
17 | O=C1CCC(N2Cc3cc(CNC(=O)Nc4ccc(CCOCCN5CCOCC5)c(O)c4)ccc3C2=O)C(=O)N1 (stereo not drawn) [IG-32, 1-((2-(2,6-dioxopiperidin-3-yl)-1-oxoisoindolin-5-yl)methyl)-3-(3-hydroxy-4-(2-(2-morpholinoethoxy)ethyl)phenyl)urea] | > 10 µM | – | – | –
18 | CNCCOCCc1ccc(NC(=O)NCc2ccc3c(c2)CN(C2CCC(=O)NC2=O)C3=O)cc1C(C)C (stereo not drawn) [IG-5] | 6.86 µM | 1410 nM | 64.6 ± 2.56% | –
19 | O=C1CCC(N2C(=O)c3ccc(NS(=O)(=O)c4ccccc4OC(F)(F)F)cc3C2=O)C(=O)N1 (stereo not drawn) [IG-9, N-(2-(2,6-dioxopiperidin-3-yl)-1,3-dioxoisoindolin-5-yl)-2-(trifluoromethoxy)benzenesulfonamide] | 6.49 µM | 157 ± 46.5 nM | 83.8 ± 5.5% | –
20 | CNCCOCCc1ccc(NC(=O)NCc2ccc3c(c2)CN(C2CCC(=O)NC2=O)C3=O)cc1SC (stereo not drawn) [IG-6, 1-((2-(2,6-dioxopiperidin-3-yl)-1-oxoisoindolin-5-yl)methyl)-3-(4-(2-(2-(methylamino)ethoxy)ethyl)-3-(methylthio)phenyl)urea] | 7.51 µM | 834 ± 125 nM | 73.3 ± 9.98% | –
21 | CC(C)(C)c1ccc(NC(=O)NCc2ccc3c(c2O)CN(C2CCC(=O)NC2=O)C3=O)cc1 (stereo not drawn) [IG-26, 1-(4-(tert-butyl)phenyl)-3-((2-(2,6-dioxopiperidin-3-yl)-4-hydroxy-1-oxoisoindolin-5-y1)methyl)urea] | > 10 µM | – | 22.1% | –
22 | Cc1ccc(NC(=O)NCc2cc(O)c3c(c2)CN(C2CCC(=O)NC2=O)C3=O)cc1Cl (stereo not drawn) [IG-24, 1-(3-chloro-4-methylphenyl)-3-((2-(2,6-dioxopiperidin-3-yl)-7-hydroxy-1-oxoisoindolin-5-yl)methyl)urea] | 0.412 µM | – | – | –
23 | O=C1CCC(N2Cc3c(Nc4ccnc(Nc5ccc6c(c5)CCC6)n4)ccc(O)c3C2=O)C(=O)N1 (stereo not drawn) [IG-44, 3-(4-((2-((2,3-dihydro-1H-inden-5-yl)amino)pyrimidin-4-yl)amino)-7-hydroxy-1-oxoisoindolin-2-yl)piperidine-2,6-dione] | > 10 µM | – | – | –
24 | Cc1ccc(NC(=O)OCc2ccc3c(c2)CN(C2CCC(=O)NC2=O)C3=O)cc1O (stereo not drawn) [IG-13, (2-(2,6-dioxopiperidin-3-yl)-1-oxoisoindolin-5-yl)methyl (3-hydroxy-4-methylphenyl)carbamate] | 3.04 µM | – | 38.8 ± 1.98% | –
25 | CNCCOCCc1ccc(NC(=O)NCc2ccc3c(c2O)CN(C2CCC(=O)NC2=O)C3=O)cc1Cl (stereo not drawn) [IG-53, 1-(3-chloro-4-(2-(2-(methylamino)ethoxy)ethyl)phenyl)-3-((2-(2,6-dioxopiperidin-3-yl)-4-hydroxy-1-oxoisoindolin-5-yl)methyl)urea] | > 30 µM | – | – | –
26 | Cc1ccc(NC(=O)OCc2ccc3c(c2O)CN(C2CCC(=O)NC2=O)C3=O)cc1Cl (stereo not drawn) [IG-33, (2-(2,6-dioxopiperidin-3-yl)-4-hydroxy-1-oxoisoindolin-5-yl)methyl (3-chloro-4-methylphenyl)carbamate] | > 10 µM | – | – | –
27 | Cc1ccc(NC(=O)NCc2ccc3nnn(C4CCC(=O)NC4=O)c(=O)c3c2)cc1O (stereo not drawn) [IG-35, 1-((3-(2,6-dioxopiperidin-3-yl)-4-oxo-3,4-dihydrobenzo[d][1,2,3]triazin-6-yl)methyl)-3-(3-hydroxy-4-methylphenyl)urea] | > 10 µM | – | – | –
28 | Nc1ccc2c(c1OS(=O)(=O)c1ccccc1OC(F)(F)F)C(=O)N(C1CCC(=O)NC1=O)C2=O (stereo not drawn) [IG-29, 5-amino-2-(2,6-dioxopiperidin-3-yl)-1,3-dioxoisoindolin-4-yl 2-(trifluoromethoxy)benzenesulfonate] | > 10 µM | – | – | –
29 | CNCCOCCc1ccc(NC(=O)NCc2ccc3c(c2)CN(C2CCC(=O)NC2=O)C3=O)cc1O (stereo not drawn) [IG-14, 1-((2-(2,6-dioxopiperidin-3-yl)-1-oxoisoindolin-5-yl)methyl)-3-(3-hydroxy-4-(2-(2-(methylamino)ethoxy)ethyl)phenyl)urea] | > 10 µM | – | 22.7 ± 3.34% | –
